One experiment has as its system N. gonorrhoeae MS11. In words: Liquid broth MIC in Fastidious broth. Conditions: Neisseria gonorrhoeae, MS11, read-out: Minimum Inhibitory Concentration (MIC), N. gonorrhoeae MS11.
Another experiment has as its system P. aeruginosa ATCC 27853. The experiment can be described thus: microbe, parasite or virus in culture. In kind it is cell-based. Particulars: Pseudomonas aeruginosa, ATCC27853, read-out: Minimum inhibitory concentration, P. aeruginosa ATCC 27853.
Experiment [1] has as its system B. thailandensis ATCC 700388. In words: microbe, parasite or virus in culture. The class given is cell-based. Particulars: Burkholderia thailandensis, ATCC700388, read-out: Minimum inhibitory concentration (MIC), B. thailandensis ATCC 700388.
The target of experiment [2] is T1, PBP3 from Acinetobacter baumannii (ATCC 19606) (Acinetobacter baumannii, UniProt A0ABX6CK25).
T1 sequence (A0ABX6CK25 64-610): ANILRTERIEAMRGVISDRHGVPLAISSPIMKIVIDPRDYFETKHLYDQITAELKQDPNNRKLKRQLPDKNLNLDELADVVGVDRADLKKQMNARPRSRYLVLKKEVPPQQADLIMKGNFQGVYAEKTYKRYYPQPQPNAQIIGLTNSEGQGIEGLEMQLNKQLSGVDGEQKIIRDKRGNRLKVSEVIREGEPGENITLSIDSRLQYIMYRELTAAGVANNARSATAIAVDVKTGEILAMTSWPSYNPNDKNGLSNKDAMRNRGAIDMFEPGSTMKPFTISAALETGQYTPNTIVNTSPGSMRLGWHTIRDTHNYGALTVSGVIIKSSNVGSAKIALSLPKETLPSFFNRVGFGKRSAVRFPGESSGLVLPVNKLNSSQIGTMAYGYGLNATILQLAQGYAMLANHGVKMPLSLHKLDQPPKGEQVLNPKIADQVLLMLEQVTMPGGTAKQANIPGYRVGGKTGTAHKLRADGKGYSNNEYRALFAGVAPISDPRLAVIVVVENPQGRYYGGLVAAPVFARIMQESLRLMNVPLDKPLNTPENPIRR
The experiment can be described thus: Bocillin-FL fluorescence polarization competition binding, A. baumannii PBP3. Particulars: fluorescence polarization competition binding assay using Bocillin-FL; read-out: A. baumannii PBP3 Potency. In a few lines: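 Purified PBP was preincubated with inhibitor (E. coli PBP3 1.5 μM, 30 min; P. aeruginosa PBP3 0.75 μM, A. baumannii PBP3 0.2 μM and PBP1a 1 μM, 15 min), then Bocillin-FL (0.1 μM; 0.05 μM for PBP1a) added and FP read up to 60 min. EC50 = 50% loss of bound probe.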
On the technique in general: In fluorescence polarisation assays a small probe gives low polarisation when free and higher when bound to something large.

Another experiment deals with N. gonorrhoeae WHO G. The experiment can be described thus: Liquid broth MIC in Fastidious broth. Conditions: Neisseria gonorrhoeae, read-out: Minimum Inhibitory Concentration (MIC), N. gonorrhoeae WHO G.
For another experiment, the system named is A. baumannii CDC-0033. In words: microbe, parasite or virus in culture. The class given is cell-based. Conditions: Acinetobacter baumannii, CDC0033, read-out: MIC, A. baumannii CDC-0033.
Another experiment deals with P. aeruginosa CDC-0095. In words: microbe, parasite or virus in culture. In kind it is cell-based. Particulars: Pseudomonas aeruginosa, CDC0095, read-out: Minimum inhibitory concentration, P. aeruginosa CDC-0095.
The next experiment relates to N. gonorrhoeae WHO Q. The experiment can be described thus: Liquid broth MIC in Fastidious broth. Particulars: Neisseria gonorrhoeae, read-out: Minimum Inhibitory Concentration (MIC), N. gonorrhoeae WHO Q.
The subject of the next experiment is A. baumannii CDC-0036. In words: microbe, parasite or virus in culture. In kind it is cell-based. Particulars: Acinetobacter baumannii, CDC0036, read-out: MIC, A. baumannii CDC-0036.
For the next experiment, the system named is P. aeruginosa CDC-0110. The experiment can be described thus: microbe, parasite or virus in culture. In kind it is cell-based. Particulars: Pseudomonas aeruginosa, CDC0110, read-out: Minimum inhibitory concentration, P. aeruginosa CDC-0110.
For the next experiment, the system named is A. baumannii 1258916. In words: microbe, parasite or virus in culture. The class given is cell-based, Acinetobacter baumannii. Conditions: Acinetobacter baumannii, 1258916, read-out: MIC, A. baumannii 1258916.

The structures appear in SMILES notation. Values after ≈ are worked out from the molar mass of the structure shown.

Method for N. gonorrhoeae WHO Q: Liquid broth-based assays were used for antibacterial testing of PBP inhibitors in Neisseria gonorrhoeae. Briefly, cryo-preserved bacterial cultures of clinical strains were streaked for isolation on Chocolate Agar (72 g/L (2×) GC Agar Base (BD #228950) and 2% (2×) Hemoglobin was autoclaved at 121° C. for 20 minutes to sterilize. Once cooled to ˜50° C. the 2×GC Agar Base and 2× Hemoglobin solutions are combined and 1% IsoVitaleX Enrichment (BD #211876) was added to the solution). Strains were incubated at 36° C. and 5% CO2 to allow growth of colonies, 24 hours before inoculum preparation. 2-fold serial dilutions of test compounds were conducted in a 96 well plate with a final volume of 75 μL per well at 2-fold the final desired concentration in Fastidious broth (Remel #R07664). For preparation of assay inoculum, a direct suspension was prepared by aseptically swabbing 10-15 colonies from agar plates into culture tubes containing 2 mL of fresh sterile saline. After the dilution plates were set up, direct suspensions were then diluted in a cuvette containing sterile saline and the optical density was measured at 600 nm. Inocula were diluted such that 75 μL of this culture in Fastidious broth results in a starting bacterial concentration of 5×10^5 CFU/mL when added to the dilution plates. The plates were incubated for ˜24 hours at 36° C. and 5% CO2.

Consider `O=C(CN1CCN(C(=O)N[C@@H](C(=O)N[C@H]2Cc3ccc(F)c(C(=O)O)c3OB2O)c2cc(F)c(O)c(O)c2Cl)C(=O)C1=O)NCc1ccncc1` [Example 239, (R)-3-((R)-2-(2-chloro-5-fluoro-3,4-dihydroxyphenyl)-2-(2,3-dioxo-4-(2-oxo-2-((pyridin-4-ylmethyl)amino)ethyl)piperazine-1-carboxamido)acetamido)-7-fluoro-2-hydroxy-3,4-dihydro-2H-benzo[e][1,2]oxaborinine-8-carboxylic acid], for which the MIC in the experiment on N. gonorrhoeae MS11 fell in the range of 16 to 32 µg/mL (≈ 21.9 to 43.8 µM); in the experiment with P. aeruginosa ATCC 27853, 2 to 4 µg/mL (≈ 2.74 to 5.47 µM); in [1], 8 to 16 µg/mL (≈ 10.9 to 21.9 µM); in the experiment on N. gonorrhoeae WHO G, 4 to 8 µg/mL (≈ 5.47 to 10.9 µM); with A. baumannii CDC-0033, 8 to 16 µg/mL (≈ 10.9 to 21.9 µM); in the experiment with P. aeruginosa CDC-0095, 2 to 4 µg/mL (≈ 2.74 to 5.47 µM). The MIC is more than 64 µg/mL with N. gonorrhoeae WHO Q, 2 to 4 µg/mL (≈ 2.74 to 5.47 µM) in the experiment on A. baumannii CDC-0036, less than 1 µg/mL in the experiment with P. aeruginosa CDC-0110 and less than 1 µg/mL in the experiment with A. baumannii 1258916. The IC50 in [2] was less than 10 µM.

As to `O=C(CN1CCN(C(=O)NC(C(=O)N[C@H]2Cc3ccc(F)c(C(=O)O)c3OB2O)c2cc(F)c(O)c(O)c2Cl)C(=O)C1=O)NCc1cccnc1` (stereo partly drawn) [Example 240, (3R)-3-(2-(2-chloro-5-fluoro-3,4-dihydroxyphenyl)-2-(2,3-dioxo-4-(2-oxo-2-((pyridin-3-ylmethyl)amino)ethyl)piperazine-1-carboxamido)acetamido)-7-fluoro-2-hydroxy-3,4-dihydro-2H-benzo[e][1,2]oxaborinine-8-carboxylic acid], the MIC is 16 to 32 µg/mL (≈ 21.9 to 43.8 µM) with N. gonorrhoeae MS11; less than 1 µg/mL in the experiment on P. aeruginosa ATCC 27853; 2 to 4 µg/mL (≈ 2.74 to 5.47 µM) in [1]; 4 to 8 µg/mL (≈ 5.47 to 10.9 µM) in the experiment with N. gonorrhoeae WHO G; 2 to 4 µg/mL (≈ 2.74 to 5.47 µM) with A. baumannii CDC-0033; 2 to 4 µg/mL (≈ 2.74 to 5.47 µM) in the experiment on P. aeruginosa CDC-0095. In addition, the MIC in the experiment on N. gonorrhoeae WHO Q was 16 to 32 µg/mL (≈ 21.9 to 43.8 µM); in the experiment on A. baumannii CDC-0036, 2 to 4 µg/mL (≈ 2.74 to 5.47 µM); in the experiment with P. aeruginosa CDC-0110, less than 1 µg/mL; in the experiment with A. baumannii 1258916, less than 1 µg/mL. For the same compound, the IC50 in [2] is less than 10 µM.

On to `O=C(CN1CCN(C(=O)N[C@@H](C(=O)N[C@H]2Cc3ccc(F)c(C(=O)O)c3OB2O)c2cc(F)c(O)c(O)c2Cl)C(=O)C1=O)NCc1nccs1` [Example 241, (R)-3-((R)-2-(2-chloro-5-fluoro-3,4-dihydroxyphenyl)-2-(2,3-dioxo-4-(2-oxo-2-((thiazol-2-ylmethyl)amino)ethyl)piperazine-1-carboxamido)acetamido)-7-fluoro-2-hydroxy-3,4-dihydro-2H-benzo[e][1,2]oxaborinine-8-carboxylic acid], for which the MIC in the experiment on N. gonorrhoeae MS11 is 16 to 32 µg/mL (≈ 21.7 to 43.4 µM); in the experiment with P. aeruginosa ATCC 27853 it was less than 1 µg/mL; in experiment [1], 2 to 4 µg/mL (≈ 2.71 to 5.43 µM); in the experiment on N. gonorrhoeae WHO G, 4 to 8 µg/mL (≈ 5.43 to 10.9 µM); with A. baumannii CDC-0033, 8 to 16 µg/mL (≈ 10.9 to 21.7 µM); with P. aeruginosa CDC-0095, 2 to 4 µg/mL (≈ 2.71 to 5.43 µM). In addition, the MIC in the experiment on N. gonorrhoeae WHO Q was 16 to 32 µg/mL (≈ 21.7 to 43.4 µM); in the experiment on A. baumannii CDC-0036, 2 to 4 µg/mL (≈ 2.71 to 5.43 µM); with P. aeruginosa CDC-0110, less than 1 µg/mL; in the experiment with A. baumannii 1258916 it was less than 1 µg/mL. In addition, the IC50 in experiment [2] is less than 10 µM.

With `O=C(NCCN1CCN(C(=O)NC(C(=O)N[C@H]2Cc3ccc(F)c(C(=O)O)c3OB2O)c2cc(F)c(O)c(O)c2Cl)C1=O)c1ccccc1` (stereo partly drawn) [Example 242, (3R)-3-(2-(3-(2-benzamidoethyl)-2-oxoimidazolidine-1-carboxamido)-2-(2-chloro-5-fluoro-3,4-dihydroxyphenyl)acetamido)-7-fluoro-2-hydroxy-3,4-dihydro-2H-benzo[e][1,2]oxaborinine-8-carboxylic acid], the MIC in the experiment on N. gonorrhoeae MS11 fell in the range of 16 to 32 µg/mL (≈ 22.8 to 45.6 µM); in the experiment on P. aeruginosa ATCC 27853, 2 to 4 µg/mL (≈ 2.85 to 5.7 µM); in [1] it was 2 to 4 µg/mL (≈ 2.85 to 5.7 µM); with N. gonorrhoeae WHO G, 16 to 32 µg/mL (≈ 22.8 to 45.6 µM); with A. baumannii CDC-0033 it was 2 to 4 µg/mL (≈ 2.85 to 5.7 µM); with P. aeruginosa CDC-0095, 2 to 4 µg/mL (≈ 2.85 to 5.7 µM). For the same compound, the MIC in the experiment with N. gonorrhoeae WHO Q was more than 64 µg/mL; in the experiment with A. baumannii CDC-0036, 2 to 4 µg/mL (≈ 2.85 to 5.7 µM); with P. aeruginosa CDC-0110, 2 to 4 µg/mL (≈ 2.85 to 5.7 µM); in the experiment with A. baumannii 1258916, less than 1 µg/mL. Besides, in experiment [2], the IC50 is less than 10 µM.

For the origin of these results see US20240270762A1, “PENICILLIN-BINDING PROTEIN INHIBITORS” (priority 2021, published 2024).
